Tests used:
Assay in all cases: relative viability (nuclei count vs DMSO), 5 days (fraction); higher = more cells survive
Apatinib + Olaparib = compound: N#CC1(c2ccc(NC(=O)c3cccnc3NCc3ccncc3)cc2)CCCC1 [Apatinib] + O=C(c1cc(Cc2n[nH]c(=O)c3ccccc23)ccc1F)N1CCN(C(=O)C2CC2)CC1 [Olaparib] (partner 8 µM)
How it was run: (§1)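 Each reported value is a median over duplicate plates. It expresses relative viability: treated-well nuclei count divided by vehicle-well nuclei count. Lung cancer cell lines in 1536-well plates were dosed by pin tool a day after seeding, alone with one drug or with a fixed anchor-drug dose plus five library-drug doses (not always all listed) in √10 steps, and nuclei were counted after 5 days.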

Metformin + Luminespib = compound: CN(C)C(=N)NC(=N)N [Metformin] + CCNC(=O)c1noc(-c2cc(C(C)C)c(O)cc2O)c1-c1ccc(CN2CCOCC2)cc1 [Luminespib] (partner 0.01 µM)
How it was run: as §1

Metformin + Trametinib = compound: CN(C)C(=N)NC(=N)N [Metformin] + CC(=O)Nc1cccc(-n2c(=O)n(C3CC3)c(=O)c3c(Nc4ccc(I)cc4F)n(C)c(=O)c(C)c32)c1 [Trametinib] (partner 0.02 µM)
How it was run: as §1

Apatinib + Pictilisib = compound: N#CC1(c2ccc(NC(=O)c3cccnc3NCc3ccncc3)cc2)CCCC1 [Apatinib] + CS(=O)(=O)N1CCN(Cc2cc3nc(-c4cccc5[nH]ncc45)nc(N4CCOCC4)c3s2)CC1 [Pictilisib] (partner 1 µM)
How it was run: as §1

Cell Line | relative viability (Apatinib + Olaparib; first compound 0.08 µM) | relative viability (Apatinib + Olaparib; first compound 0.253 µM) | relative viability (Apatinib + Olaparib; first compound 0.8 µM) | relative viability (Apatinib + Olaparib; first compound 2.53 µM) | relative viability (Apatinib + Olaparib; first compound 8 µM) | relative viability (Metformin + Luminespib; first compound 10 µM) | relative viability (Metformin + Luminespib; first compound 31.62 µM) | relative viability (Metformin + Luminespib; first compound 100 µM) | relative viability (Metformin + Luminespib; first compound 316.23 µM) | relative viability (Metformin + Luminespib; first compound 1000 µM) | relative viability (Metformin + Trametinib; first compound 10 µM) | relative viability (Metformin + Trametinib; first compound 31.62 µM) | relative viability (Metformin + Trametinib; first compound 100 µM) | relative viability (Metformin + Trametinib; first compound 316.23 µM) | relative viability (Metformin + Trametinib; first compound 1000 µM) | relative viability (Apatinib + Pictilisib; first compound 0.08 µM) | relative viability (Apatinib + Pictilisib; first compound 0.253 µM) | relative viability (Apatinib + Pictilisib; first compound 0.8 µM) | relative viability (Apatinib + Pictilisib; first compound 2.53 µM) | relative viability (Apatinib + Pictilisib; first compound 8 µM)
BEN | 1.35 | 1.24 | 1.13 | 0.987 | 0.774 | 0.461 | 0.475 | 0.833 | 0.361 | 0.705 | 1.25 | 1.5 | 1.43 | 1.13 | 1.21 | 0.557 | 0.526 | 0.55 | 0.464 | 0.468
EMC-BAC-2 | 0.57 | 0.507 | 0.44 | 0.363 | 0.319 | 1.23 | 1.24 | 1.21 | 1.19 | 1.33 | 0.751 | 0.889 | – | 0.73 | 0.829 | 0.561 | 0.593 | 0.572 | 0.516 | 0.527
COR-L 105 | 0.794 | 0.802 | 0.737 | 0.543 | 0.672 | 0.85 | 0.736 | 0.749 | 0.538 | 0.795 | 0.428 | 0.479 | 0.511 | 0.454 | 0.489 | 0.512 | 0.471 | 0.33 | 0.438 | 0.354
A-427 | 0.66 | 0.71 | 0.73 | 0.641 | 0.612 | 1.21 | 0.972 | 1.04 | 0.952 | 0.91 | 0.719 | 0.868 | 0.725 | 0.692 | 0.54 | 0.925 | 0.679 | 0.715 | 0.611 | 0.592
NCI-H1792 | 0.416 | 0.588 | 0.341 | 0.224 | 0.216 | 0.599 | 0.57 | 0.789 | 0.418 | 0.485 | 0.566 | 0.483 | 0.567 | 0.431 | 0.433 | 0.309 | 0.278 | 0.334 | 0.191 | 0.243
LCLC-103H | 0.753 | 0.713 | 0.745 | 0.712 | 0.753 | 0.934 | 1.18 | 1.06 | 0.961 | 1.04 | 0.72 | 0.672 | 0.745 | 0.696 | 0.684 | 0.651 | 0.639 | 0.554 | 0.545 | 0.546
NCI-H520 | 0.375 | 0.32 | 0.401 | 0.28 | 0.314 | 0.265 | 0.224 | 0.211 | 0.223 | 0.23 | 0.798 | 0.622 | 0.739 | 0.505 | 0.762 | 0.281 | 0.268 | 0.301 | 0.314 | 0.275
NCI-H3122 | 0.609 | 0.655 | 0.525 | 0.613 | 0.597 | 0.076 | 0.0878 | 0.0846 | 0.0862 | 0.113 | 0.163 | 0.21 | 0.258 | 0.188 | 0.209 | 0.679 | 0.538 | 0.684 | 0.731 | 0.701
